Results published in ChEMBL document CHEMBL1123222, “Inactivation of gamma-aminobutyric acid aminotransferase by (S,E)-4-amino-5-fluoropent-2-enoic acid and effect on the enzyme of (E)-3-(1-aminocyclopropyl)-2-propenoic acid” (J Med Chem, 1986).
pKi: −log10 of the molar value.

What was measured:
[1] = Michaelis-Menten constant was determined; format: ADME
[2] = Maximal rate constant was determined; format: ADME
[3] = target: T1, 4-aminobutyrate aminotransferase, mitochondrial (Sus scrofa, UniProt P80147); experiment: Compound was tested for inhibitory constant of Gamma-amino-N-butyrate transaminase in pig brain at pH of 8.5 and 25 degree C
T1 sequence (P80147 whole entry): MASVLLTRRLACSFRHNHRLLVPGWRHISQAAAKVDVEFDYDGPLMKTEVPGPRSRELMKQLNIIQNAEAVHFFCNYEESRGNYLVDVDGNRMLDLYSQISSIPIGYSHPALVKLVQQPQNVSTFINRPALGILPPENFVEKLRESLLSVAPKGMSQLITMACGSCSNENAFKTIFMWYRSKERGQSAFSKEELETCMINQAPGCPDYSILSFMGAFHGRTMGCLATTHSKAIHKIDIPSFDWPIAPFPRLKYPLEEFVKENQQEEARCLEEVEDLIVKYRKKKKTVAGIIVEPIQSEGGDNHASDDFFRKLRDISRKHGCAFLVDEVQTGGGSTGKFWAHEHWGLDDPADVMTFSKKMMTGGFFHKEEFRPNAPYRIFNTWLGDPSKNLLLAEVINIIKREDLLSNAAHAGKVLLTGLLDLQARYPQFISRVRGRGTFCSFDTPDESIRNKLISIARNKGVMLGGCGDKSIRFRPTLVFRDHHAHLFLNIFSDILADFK

[4] = target: 4-aminobutyrate aminotransferase, mitochondrial (Sus scrofa) (UniProt P80147); experiment: Compound was tested for inactivation of Gamma-amino-N-butyrate transaminase in pig brain at pH of 6.5
4-aminobutyrate aminotransferase, mitochondrial (Sus scrofa), sequence (P80147 whole entry): as above

[5] = target: 4-aminobutyrate aminotransferase, mitochondrial (Sus scrofa) (UniProt P80147); experiment: Compound was tested for inactivation of Gamma-amino-N-butyrate transaminase in pig brain at pH of 8.5 and 25 degree C
[6] = target: T1, 4-aminobutyrate aminotransferase, mitochondrial; experiment: Compound was tested for inhibitory constant of Gamma-amino-N-butyrate transaminase in pig brain at pH of 6.5

| Km [1] | Vmax [2] | Compound | pKi [3] | K inact [4] | K inact [5] | pKi [6] |
| --- | --- | --- | --- | --- | --- | --- |
| 1100 µM | 0.14 µM/min/mg | NCCCC(=O)O [GAMMA-AMINOBUTYRIC ACID] | – | – | – | – |
| 1300 µM | 0.35 µM/min/mg | NC/C=C/C(=O)O [t-4-AMINOCROTONIC ACID (TACA)] | – | – | – | – |
| – | – | NC(CF)CCC(=O)O (stereo not given) | 3.40 | 0.31 min⁻¹ | 0.5 min⁻¹ | 0.98 |
| – | – | NC(/C=C/C(=O)O)CF (stereo not given) | – | 0.061 min⁻¹ | – | 2.70 |
